A short description of assay [1]: (§1) Inhibition of Mycobacterium tuberculosis H37Rv chorismate mutase expressed in Escherichia coli assessed as inhibition of prephenate formation after 1 to 5 mins by spectrophotometry.
Assay [2] relates to Mycobacterium tuberculosis H37Rv. Described as §1.
Assay [3] shares this test system. The assay is described as follows: Inhibition of Mycobacterium tuberculosis H37Rv chorismate mutase expressed in Escherichia coli assessed as inhibition of prephenate formation at 50 uM after 1 to 5 mins by spectrophotometry.

What is called IC50 is the point on the concentration scale where inhibition reaches its midpoint. What is called inhibition is how much of the control response was suppressed. For the molecule `CCCc1nn(C)c2c(=O)n(-c3ccc4ccccc4c3)nnc12`, the IC50 in assay [1] came to 15.1 µM. Further, the inhibition entry was “Dose-dependent effect” in assay [2] and 61% in assay [3]. Consider `O=c1c2c3c(sc2nnn1-c1ccc2ccccc2c1)CCCC3`, for which the inhibition in assay [3] came out at 37%. In the case of `O=c1c2ccccc2nnn1-c1ccccc1`, the inhibition in assay [3] is 12%.

With `O=c1c2ccccc2nnn1-c1ccc2ccccc2c1`, the inhibition in assay [3] was determined as 40%. Still for that read-out and setting: with `CCCc1nn(C)c2c(=O)n(-c3ccc(F)cc3)nnc12` the figure was 24%. On the same count and under the same terms, with `CCCc1nn(C)c2c(=O)n(-c3ccccc3)nnc12` the figure was 10%. On the same count and under the same terms, with `O=c1c2c3c(sc2nnn1-c1ccc(F)cc1)CCCC3` the figure was 25%; with `CCCc1nn(C)c2c(=O)n(-c3cccc(Cl)c3)nnc12`, 30%. `COc1cc(CCNc2c([N+](=O)[O-])cc(C(=O)O)cc2S(N)(=O)=O)cc(OC)c1`: in assay [1], the concentration for half-maximal inhibition (IC50) is < 10 µM.

The values are drawn from ChEMBL document CHEMBL1938321, “Cu-mediated N-arylation of 1,2,3-triazin-4-ones: synthesis of fused triazinone derivatives as potential inhibitors of chorismate mutase” (Bioorg Med Chem Lett, 2012).
